In patent publication US5861520A, “Glycolipid analogs” (Seikagaku Kogyo Kabushiki Kaisha (Seikagaku Corporation), priority 1994, dated 1999):
“Also recorded” adds a separate entry of the source.

Legend:
Assay type in all cases: biochemical
β-glucocerebrosidase [1] = target: T1, β-glucocerebrosidase (Mus musculus, UniProt P17439); assay: β-glucocerebrosidase inhibition with NBD-glucocerebroside (fluorescence-labeled natural substrate), mouse liver microsome; details: for inhibition of β-glucocerebrosidase activity (in words) / inhibition at 10 µM: 10 μM; for inhibition at 10 µM / IC50: NBD-glucocerebroside, mouse liver microsome; for enhancement of β-glucocerebrosidase inhibition compared with C-1 and C-3 (in words): compared with saturated analogs C-1 and C-3
T1 construct: mouse liver microsome as an enzyme source; from tissue; host or cells: mouse liver microsome
T1 sequence (P17439 20-515): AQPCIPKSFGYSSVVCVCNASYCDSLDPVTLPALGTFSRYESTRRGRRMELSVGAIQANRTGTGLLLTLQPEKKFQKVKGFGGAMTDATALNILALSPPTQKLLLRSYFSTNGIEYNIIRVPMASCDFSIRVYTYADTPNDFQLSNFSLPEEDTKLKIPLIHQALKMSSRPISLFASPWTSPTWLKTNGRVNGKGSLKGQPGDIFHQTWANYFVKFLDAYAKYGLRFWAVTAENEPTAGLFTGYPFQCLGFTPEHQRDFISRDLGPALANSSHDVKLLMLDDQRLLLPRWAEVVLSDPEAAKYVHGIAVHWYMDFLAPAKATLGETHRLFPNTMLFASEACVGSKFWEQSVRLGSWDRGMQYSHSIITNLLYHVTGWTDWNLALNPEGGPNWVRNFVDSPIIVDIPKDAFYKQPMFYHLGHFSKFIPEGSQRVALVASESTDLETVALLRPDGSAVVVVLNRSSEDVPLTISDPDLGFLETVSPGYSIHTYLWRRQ
Protocol: (§1) Glycosidase inhibitory effects of glycolipid analogs (1) The inhibitory effects of each of compounds 1E, 1Z, 2E and 2Z synthesized in Examples 1 to 4 on β-glucocerebrosidase and β-galactocerebrosidase were determined by using fluorescence-labeled natural substrates, i.e., 12-[N-methyl-N-(7-nitro-2-oxa-1,3-diaxol-4-yl)]aminododecanoic acid (NBD)-glucocerebroside and NBD-galactocrebroside. Namely, the β-glucocerebrosidease activity was determined in accordance with the method of Granbowski et al. [Clin. Chim. Acta., […], 123-135 (1982)] with the use of mouse liver microsome as an enzyme source. On the other hand, the β-galactocerebrosidase activity was determined in accordance with the method of Raghavan et al. [Biochim. Biophys. Acta, 877, 1-8 (1986)] with the use of mouse brain microsome as an enzyme source. […] Each substrate was used in a constant and large excess amount over the corresponding enzyme. […] IC50 levels (the concentration necessary for inhibiting 50% of the enzyme activity) of compounds 1E and 1Z were 0.3 μM and 0.1 μM, respectively. […] The inhibition (%) was determined in accordance with the following formula. [formula]
(§2) Under the same conditions as employed above, further, the inhibitory effects of the following compound C-1 [in the formula (a), X=NH, sugar analog=glucose type] being similar to the glycolipid analogs of the present invention and the sugar analogs C-2 to C-4 represented by the following formula [synthesized by the method similar to in the synthesis of compound C-1] were examined and compared.

β-galactocerebrosidase [2] = target: T2, β-galactocerebrosidase (Mus musculus, UniProt P54818); assay: β-galactocerebrosidase inhibition with NBD-galactocerebroside (fluorescence-labeled natural substrate), mouse brain microsome; details: for inhibition at 10 µM / IC50: NBD-galactocerebroside, mouse brain microsome; for inhibition at 10 µM / inhibition of β-galactocerebrosidase activity (in words): 10 μM
T2 construct: mouse brain microsome as an enzyme source; from tissue; host or cells: mouse brain microsome
T2 sequence (P54818 43-684): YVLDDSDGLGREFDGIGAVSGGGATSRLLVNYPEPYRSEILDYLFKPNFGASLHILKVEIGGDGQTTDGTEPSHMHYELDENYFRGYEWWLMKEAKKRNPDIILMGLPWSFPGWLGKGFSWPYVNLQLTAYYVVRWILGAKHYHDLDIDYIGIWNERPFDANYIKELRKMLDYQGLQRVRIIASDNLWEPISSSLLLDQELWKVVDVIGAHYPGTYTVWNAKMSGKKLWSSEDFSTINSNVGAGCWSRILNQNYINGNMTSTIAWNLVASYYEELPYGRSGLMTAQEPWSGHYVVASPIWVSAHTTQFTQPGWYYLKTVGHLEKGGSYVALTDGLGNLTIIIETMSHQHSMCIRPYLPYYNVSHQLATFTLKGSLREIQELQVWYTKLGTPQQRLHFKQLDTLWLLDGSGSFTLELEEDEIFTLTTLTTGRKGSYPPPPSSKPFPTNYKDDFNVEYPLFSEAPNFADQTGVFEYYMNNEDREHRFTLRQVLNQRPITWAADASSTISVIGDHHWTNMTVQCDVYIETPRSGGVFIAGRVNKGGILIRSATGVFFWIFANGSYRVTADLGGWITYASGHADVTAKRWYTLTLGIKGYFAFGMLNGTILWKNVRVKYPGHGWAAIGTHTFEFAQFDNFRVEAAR
Protocol: as §1, §2

β-glucocerebrosidase [3] = target: T1, β-glucocerebrosidase; assay: β-glucocerebrosidase inhibition with 4-methyl-umbelliferyl glucoside as substrate; details: mouse liver microsome
Protocol: (§3) (2) The inhibitory effects of each of compounds 1E, 1Z, 2E and 2Z synthesized in Examples 1 to 4, the above-described compound C-1 and the following compounds C-5 and C-6 on β-glucocerebrosidase and β-galactocerebrosidase were determined by the following method. Namely, the same enzyme sources as employed in the above (1) were used, while 4-methyl-umbelliferyl glucoside was used as a substrate. The inhibition (%) and IC50 were determined in accordance with the method of Peter et al. [Clin. Chim. Acta, 60, 391-396 (1975)]. In each case, the substrate was used in a constant and large excess amount over the corresponding enzyme.

β-galactocerebrosidase [4] = assay: β-galactocerebrosidase inhibition, 4-methyl-umbelliferyl substrate; details: mouse brain microsome, 4-methyl-umbelliferyl glucoside
Protocol: as §3

inhibition at 10 µM (β-glucocerebrosidase [1]) | IC50 (β-glucocerebrosidase [1]) | enhancement of β-glucocerebrosidase inhibition compared with C-1 and C-3 (in words) (β-glucocerebrosidase [1]) | inhibition at 10 µM (β-galactocerebrosidase [2]) | inhibition at 40 µM (β-glucocerebrosidase [3]) | IC50 (β-glucocerebrosidase [3]) | 40 μM inhibition (%) (β-galactocerebrosidase [4]) | IC50 (β-galactocerebrosidase [2]) | IC50 (β-galactocerebrosidase [4]) | SMILES | inhibition of β-glucocerebrosidase activity (in words) (β-glucocerebrosidase [1]) | inhibition of β-galactocerebrosidase activity (in words) (β-galactocerebrosidase [2])
95.2% | 300 nM | extremely enhanced | 0% | 97% | 580 nM | 1% |  |  | CCCCCCCCCCCCC/C=C/[C@@H](O)[C@H](CN[C@@H]1C=C(CO)[C@@H](O)[C@H](O)[C@H]1O)NC(=O)CCCCCCCCCCCCCCC [Compound 1E, (2S,3R,4E)-1-[(5a-carba-β-D-xylo-hex-5-enopyranosyl)amino]-2-(hexadecanoylamino)-4-octadecen-3-ol] | strongly and specifically inhibited the β-glucocerebrosidase activity alone; also recorded: almost completely inhibited the β-glucocerebrosidase activity | 
97.7% | 100 nM | extremely enhanced | 0% | 99% | 440 nM | 1% |  |  | CCCCCCCCCCCCC/C=C\[C@@H](O)[C@H](CN[C@@H]1C=C(CO)[C@@H](O)[C@H](O)[C@H]1O)NC(=O)CCCCCCCCCCCCCCC [Compound 1Z, (2S,3R,4Z)-1-[(5a-carba-β-D-xylo-hex-5-enopyranosyl)amino]-2-(hexadecanoylamino)-4-octadecen-3-ol] | strongly and specifically inhibited the β-glucocerebrosidase activity alone; also recorded: almost completely inhibited the β-glucocerebrosidase activity | 
0% |  |  | 92.6% | 31% |  | 95% | 1600 nM | 1250 nM | CCCCCCCCCCCCC/C=C/[C@@H](O)[C@H](CN[C@@H]1C=C(CO)[C@H](O)[C@H](O)[C@H]1O)NC(=O)CCCCCCCCCCCCCCC [Compound 2E, (2S,3R,4E)-1-[(5a-carba-α-L-arabino-hex-5-enopyranosyl)amino]-2-(hexadecanoylamino)-4-octadecen-3-ol] |  | strongly and specifically inhibited the β-galactocerebrosidase activity alone
0% |  |  | 87.2% | 43% |  | 92% | 2300 nM | 1850 nM | CCCCCCCCCCCCC/C=C\[C@@H](O)[C@H](CN[C@@H]1C=C(CO)[C@H](O)[C@H](O)[C@H]1O)NC(=O)CCCCCCCCCCCCCCC [Compound 2Z, (2S,3R,4Z)-1-[(5a-carba-α-L-arabino-hex-5-enopyranosyl)amino]-2-(hexadecanoylamino)-4-octadecen-3-ol] |  | strongly and specifically inhibited the β-galactocerebrosidase activity alone
37.3% |  |  | 0% | 56% |  | 7% |  |  | CCCCCCCCCCCCC/C=C/[C@@H](O)[C@H](CN[C@@H]1C[C@H](CO)[C@@H](O)[C@H](O)[C@H]1O)NC(=O)CCCCCCCCCCCCCCC [Compound C-1, reference compound] |  | 
0% |  |  | 12.9% |  |  |  |  |  | CCCCCCCCCCCCC/C=C/[C@@H](O)[C@H](CN[C@@H]1C[C@H](CO)[C@H](O)[C@H](O)[C@H]1O)NC(=O)CCCCCCCCCCCCCCC [Compound C-2, reference compound] |  | slightly inhibited the β-galactocerebrosidase activity
64% |  |  | 2.3% |  |  |  |  |  | CCCCCCCCCCCCC/C=C\[C@@H](O)[C@H](CN[C@@H]1C[C@H](CO)[C@@H](O)[C@H](O)[C@H]1O)NC(=O)CCCCCCCCCCCCCCC [Compound C-3, reference compound] |  | 
0% |  |  | 15.4% |  |  |  |  |  | CCCCCCCCCCCCC/C=C\[C@@H](O)[C@H](CN[C@@H]1C[C@H](CO)[C@H](O)[C@H](O)[C@H]1O)NC(=O)CCCCCCCCCCCCCCC [Compound C-4, reference compound] |  | slightly inhibited the β-galactocerebrosidase activity
 |  |  |  | 0% |  | 31% |  |  | CCCCCCCCCCCCC/C=C/[C@@H](O)[C@H](CO[C@@H]1C[C@H](CO)[C@@H](O)[C@H](O)[C@H]1O)NC(=O)CCCCCCCCCCCCCCC [Compound C-5, reference compound] |  | 
 |  |  |  | 0% |  | 0% |  |  | CCCCCCCCCCCCC/C=C/[C@@H](O)[C@H](CS[C@@H]1C[C@H](CO)[C@@H](O)[C@H](O)[C@H]1O)NC(=O)CCCCCCCCCCCCCCC [Compound C-6, reference compound] |  | 
